US20260193271A1, “PAN-KRAS INHIBITOR COMPOUND” (ADLAI NORTYE BIOPHARMA CO., LTD., priority 2022, published 2026)

How the values were obtained:
AsPC-1 (G12D) = test: In vitro cell proliferation inhibition test (CellTiter-Glo), AsPC-1; format: cell-based; conditions: Homo sapiens, ASPC1, AsPC-1 pancreas cell line, KRAS (p.G12D), 72 h co-incubation
Procedure, shortened: (§1)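 Cells were seeded at 1000-5000/well by doubling time and cultured overnight at 37 °C, 5% CO2. They were then exposed for 72 h to 10-point, 3-fold compound dilutions (final top 10 μM), and viability was read by CellTiter-Glo luminescence. IC50 came from normalized signals fitted by four-parameter regression.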

SW480 (G12V) = test: In vitro cell proliferation inhibition test (CellTiter-Glo), SW480; format: cell-based; conditions: Homo sapiens, SW480 colon cell line, KRAS (p.G12V), 72 h co-incubation
Procedure, shortened: as §1

SMILES: CO[C@@H](C)c1ncc(-c2cnc(CN3CCOCC3)nc2)cc1-c1c2c3cc(ccc3n1CC(F)(F)F)-c1csc(n1)C[C@H](NC(=O)[C@H]1[C@H](C)[C@@H]1C)C(=O)N1CCC[C@H](N1)C(=O)OCC(C)(C)C2 (atropisomer, axis not shown) [Compound 44, (1r,2R,3S)-N-((6^3S,4S,Z)-1^2-(2-((S)-1-methoxyethyl)-5-(2-(morpholinomethyl)pyrimidin-5-yl)pyridin-3-yl)-10,10-dimethyl-5,7-dioxo-1^1-(2,2,2-trifluoroethyl)-6^1,6^2,6^3,6^4,6^5,6^6-hexahydro-1^1H-8-oxa-2(4,2)-thiazola-1(5,3)-indola-6(1,3)-pyridazinacycloundecaphane-4-yl)-2,3-dimethylcyclopropane-1-carboxamide]
- IC50 (AsPC-1 (G12D)): 0.26 nM
- IC50 (SW480 (G12V)): 0.35 nM

SMILES: CCn1c(-c2cc(-c3cnc4c(c3)CN(C)C4)cnc2[C@H](C)OC)c2c3cc(ccc31)-c1csc(n1)C[C@H](NC(=O)[C@H]1C[C@@H]1C)C(=O)N1CCC[C@H](N1)C(=O)OCC(C)(C)C2 (atropisomer, axis not shown) [Compound 45, (1S,2S)-N-((6^3S,4S,Z)-1^1-ethyl-1^2-(2-((S)-1-methoxyethyl)-5-(6-methyl-6,7-dihydro-5H-pyrrolo[3,4-b]pyridin-3-yl)pyridin-3-yl)-10,10-dimethyl-5,7-dioxo-6^1,6^2,6^3,6^4,6^5,6^6-hexahydro-1^1H-8-oxa-2(4,2)-thiazola-1(5,3)-indola-6(1,3)-pyridazinacycloundecaphane-4-yl)-2-methylcyclopropane-1-carboxamide]
- IC50 (AsPC-1 (G12D)): 5.3 nM
- IC50 (SW480 (G12V)): 6.2 nM

SMILES: CCn1c(-c2cc(-c3ccc(CN4CC[C@@H](F)C4)cn3)cnc2[C@H](C)OC)c2c3cc(ccc31)-c1csc(n1)C[C@H](NC(=O)[C@H]1C[C@@H]1C)C(=O)N1CCC[C@H](N1)C(=O)OCC(C)(C)C2 (atropisomer, axis not shown) [Compound 46, (1S,2S)-N-((6^3S,4S,Z)-1^1-ethyl-1^2-(5-(((R)-3-fluoropyrrolidin-1-yl)methyl)-6′-((S)-1-methoxyethyl)-[2,3′-bipyridin]-5′-yl)-10,10-dimethyl-5,7-dioxo-6^1,6^2,6^3,6^4,6^5,6^6-hexahydro-1^1H-8-oxa-2(4,2)-thiazola-1(5,3)-indola-6(1,3)-pyridazinacycloundecaphane-4-yl)-2-methylcyclopropane-1-carboxamide]
- IC50 (AsPC-1 (G12D)): 6.1 nM
- IC50 (SW480 (G12V)): 4.1 nM

SMILES: CCn1c(-c2cc(-c3ccc(CN4CC[C@@H](O)C4)cn3)cnc2[C@H](C)OC)c2c3cc(ccc31)-c1csc(n1)C[C@H](NC(=O)[C@H]1C[C@@H]1C)C(=O)N1CCC[C@H](N1)C(=O)OCC(C)(C)C2 (atropisomer, axis not shown) [Compound 47, (1S,2S)-N-((6^3S,4S,Z)-1^1-ethyl-1^2-(5-(((R)-3-hydroxypyrrolidin-1-yl)methyl)-6′-((S)-1-methoxyethyl)-[2,3′-bipyridin]-5′-yl)-10,10-dimethyl-5,7-dioxo-6^1,6^2,6^3,6^4,6^5,6^6-hexahydro-1^1H-8-oxa-2(4,2)-thiazola-1(5,3)-indola-6(1,3)-pyridazinacycloundecaphane-4-yl)-2-methylcyclopropane-1-carboxamide]
- IC50 (AsPC-1 (G12D)): 2.9 nM
- IC50 (SW480 (G12V)): 6.1 nM

SMILES: CCn1c(-c2cc(-c3ncc(CN4CCS(=N)(=O)CC4)cn3)cnc2[C@H](C)OC)c2c3cc(ccc31)-c1csc(n1)C[C@H](NC(=O)[C@H]1C[C@@H]1C)C(=O)N1CCC[C@H](N1)C(=O)OCC(C)(C)C2 (atropisomer, axis not shown) [Compound 49, (1S,2S)-N-((6^3S,4S,Z)-1^1-ethyl-1^2-(5-(5-((1-imino-1-oxido-1λ^6-thiomorpholino)methyl)pyrimidin-2-yl)-2-((S)-1-methoxyethyl)pyridin-3-yl)-10,10-dimethyl-5,7-dioxo-6^1,6^2,6^3,6^4,6^5,6^6-hexahydro-1^1H-8-oxa-2(4,2)-thiazola-1(5,3)-indola-6(1,3)-pyridazinacycloundecaphane-4-yl)-2-methylcyclopropane-1-carboxamide]
- IC50 (AsPC-1 (G12D)): 1 nM
- IC50 (SW480 (G12V)): 4.3 nM

SMILES: CCn1c(-c2cc(-c3ccc(CN4CC[C@@H](S(C)(=O)=O)C4)cn3)cnc2[C@H](C)OC)c2c3cc(ccc31)-c1csc(n1)C[C@H](NC(=O)[C@H]1C[C@@H]1C)C(=O)N1CCC[C@H](N1)C(=O)OCC(C)(C)C2 (atropisomer, axis not shown) [Compound 50, (1S,2S)-N-((6^3S,4S,Z)-1^1-ethyl-1^2-(6′-((S)-1-methoxyethyl)-5-(((R)-3-(methylsulfonyl)pyrrolidin-1-yl)methyl)-[2,3′-bipyridin]-5′-yl)-10,10-dimethyl-5,7-dioxo-6^1,6^2,6^3,6^4,6^5,6^6-hexahydro-1^1H-8-oxa-2(4,2)-thiazola-1(5,3)-indola-6(1,3)-pyridazinacycloundecaphane-4-yl)-2-methylcyclopropane-1-carboxamide]
- IC50 (AsPC-1 (G12D)): 8.5 nM
- IC50 (SW480 (G12V)): 7.8 nM

SMILES: CCn1c(-c2cc(-c3ncc(CN4CCS(=O)(=O)CC4)cn3)cnc2[C@H](C)OC)c2c3cc(ccc31)-c1csc(n1)C[C@H](NC(=O)[C@H]1C[C@@H]1C)C(=O)N1CCC[C@H](N1)C(=O)OCC(C)(C)C2 (atropisomer, axis not shown) [Compound 51, (1S,2S)-N-((6^3S,4S,Z)-1^2-(5-(5-((1,1-dioxidothiomorpholino)methyl)pyrimidin-2-yl)-2-((S)-1-methoxyethyl)pyridin-3-yl)-1^1-ethyl-10,10-dimethyl-5,7-dioxo-6^1,6^2,6^3,6^4,6^5,6^6-hexahydro-1^1H-8-oxa-2(4,2)-thiazola-1(5,3)-indola-6(1,3)-pyridazinacycloundecaphane-4-yl)-2-methylcyclopropane-1-carboxamide]
- IC50 (AsPC-1 (G12D)): 0.9 nM
- IC50 (SW480 (G12V)): 1.2 nM

SMILES: CCn1c(-c2cc(-c3cc4c(n(C)c3=O)CCN(C)C4)cnc2[C@H](C)OC)c2c3cc(ccc31)-c1csc(n1)C[C@H](NC(=O)[C@H]1C[C@@H]1C)C(=O)N1CCC[C@H](N1)C(=O)OCC(C)(C)C2 (atropisomer, axis not shown) [Compound 52, (1S,2S)-N-((6^3S,4S,Z)-1^2-(5-(1,6-dimethyl-2-oxo-1,2,5,6,7,8-hexahydro-1,6-naphthyridin-3-yl)-2-((S)-1-methoxyethyl)pyridin-3-yl)-1^1-ethyl-10,10-dimethyl-5,7-dioxo-6^1,6^2,6^3,6^4,6^5,6^6-hexahydro-1^1H-8-oxa-2(4,2)-thiazola-1(5,3)-indola-6(1,3)-pyridazinacycloundecaphane-4-yl)-2-methylcyclopropane-1-carboxamide]
- IC50 (AsPC-1 (G12D)): 0.21 nM
- IC50 (SW480 (G12V)): 1.2 nM

SMILES: CCn1c(-c2cc(-c3cnc(CN4CCN(C)CC4)nc3)cnc2[C@H](C)OC)c2c3cc(ccc31)-c1csc(n1)C[C@H](NC(=O)[C@H]1C[C@@H]1C)C(=O)N1CCC[C@H](N1)C(=O)OCC(C)(C)C2 (atropisomer, axis not shown) [Compound 53, (1S,2S)-N-((6^3S,4S,Z)-1^1-ethyl-1^2-(2-((S)-1-methoxyethyl)-5-(2-((4-methylpiperazin-1-yl)methyl)pyrimidin-5-yl)pyridin-3-yl)-10,10-dimethyl-5,7-dioxo-6^1,6^2,6^3,6^4,6^5,6^6-hexahydro-1^1H-8-oxa-2(4,2)-thiazola-1(5,3)-indola-6(1,3)-pyridazinacycloundecaphane-4-yl)-2-methylcyclopropane-1-carboxamide]
- IC50 (AsPC-1 (G12D)): 4.3 nM
- IC50 (SW480 (G12V)): 1.7 nM

SMILES: CCn1c(-c2cc(-c3cnc(N4CCN(C)CC4)nc3)cnc2[C@H](C)OC)c2c3cc(ccc31)-c1csc(n1)C[C@H](NC(=O)[C@H]1C[C@@H]1C)C(=O)N1CCC[C@H](N1)C(=O)OCC(C)(C)C2 (atropisomer, axis not shown) [Compound 54, (1S,2S)-N-((6^3S,4S,Z)-1^1-ethyl-1^2-(2-((S)-1-methoxyethyl)-5-(2-(4-methylpiperazin-1-yl)pyrimidin-5-yl)pyridin-3-yl)-10,10-dimethyl-5,7-dioxo-6^1,6^2,6^3,6^4,6^5,6^6-hexahydro-1^1H-8-oxa-2(4,2)-thiazola-1(5,3)-indola-6(1,3)-pyridazinacycloundecaphane-4-yl)-2-methylcyclopropane-1-carboxamide]
- IC50 (AsPC-1 (G12D)): 2.2 nM
- IC50 (SW480 (G12V)): 5.7 nM

SMILES: CCn1c(-c2cc(-c3cnc(CN4CCCCC4)nc3)cnc2[C@H](C)OC)c2c3cc(ccc31)-c1csc(n1)C[C@H](NC(=O)[C@H]1C[C@@H]1C)C(=O)N1CCC[C@H](N1)C(=O)OCC(C)(C)C2 (atropisomer, axis not shown) [Compound 55, (1S,2S)-N-((6^3S,4S,Z)-1^1-ethyl-1^2-(2-((S)-1-methoxyethyl)-5-(2-(piperidin-1-ylmethyl)pyrimidin-5-yl)pyridin-3-yl)-10,10-dimethyl-5,7-dioxo-6^1,6^2,6^3,6^4,6^5,6^6-hexahydro-1^1H-8-oxa-2(4,2)-thiazola-1(5,3)-indola-6(1,3)-pyridazinacycloundecaphane-4-yl)-2-methylcyclopropane-1-carboxamide]
- IC50 (AsPC-1 (G12D)): 6.8 nM
- IC50 (SW480 (G12V)): 15 nM

SMILES: CCn1c(-c2cc(-c3cnc(N4CCOCC4)nc3)cnc2[C@H](C)OC)c2c3cc(ccc31)-c1csc(n1)C[C@H](NC(=O)[C@H]1C[C@@H]1C)C(=O)N1CCC[C@H](N1)C(=O)OCC(C)(C)C2 (atropisomer, axis not shown) [Compound 56, (1S,2S)-N-((6^3S,4S,Z)-1^1-ethyl-1^2-(2-((S)-1-methoxyethyl)-5-(2-morpholinopyrimidin-5-yl)pyridin-3-yl)-10,10-dimethyl-5,7-dioxo-6^1,6^2,6^3,6^4,6^5,6^6-hexahydro-1^1H-8-oxa-2(4,2)-thiazola-1(5,3)-indola-6(1,3)-pyridazinacycloundecaphane-4-yl)-2-methylcyclopropane-1-carboxamide]
- IC50 (AsPC-1 (G12D)): 16 nM
- IC50 (SW480 (G12V)): 21 nM
